Assay results from ChEMBL document CHEMBL1135514, “Structure-based approach for binding site identification on AmpC beta-lactamase” (J Med Chem, 2002).

Target: Beta-lactamase (Escherichia coli K-12, UniProt P00811)
Experiment: Binding affinity towards AmpC beta-lactamase binding site from Escherichia coli

Sequence of Beta-lactamase (P00811 whole entry): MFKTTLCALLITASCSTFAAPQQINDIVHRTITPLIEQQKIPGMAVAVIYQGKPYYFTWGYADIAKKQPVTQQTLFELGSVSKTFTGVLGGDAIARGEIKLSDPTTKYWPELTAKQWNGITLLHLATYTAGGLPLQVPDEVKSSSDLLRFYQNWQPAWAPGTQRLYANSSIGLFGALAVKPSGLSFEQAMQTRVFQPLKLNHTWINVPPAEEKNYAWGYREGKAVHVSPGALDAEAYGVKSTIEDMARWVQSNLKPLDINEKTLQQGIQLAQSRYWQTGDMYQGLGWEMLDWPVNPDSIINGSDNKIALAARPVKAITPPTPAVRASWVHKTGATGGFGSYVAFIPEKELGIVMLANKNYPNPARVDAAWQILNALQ

CC(C)(O/N=C(/C(=O)NCB(O)O)c1csc(N)n1)C(=O)O
Ki: 20 nM
